Like-named read-outs stand apart in the source and are kept apart here. *1 amine or outer side, *2 acyl side, *3 side chain or, on linkers, in order; H or OH if unused. Where a SMILES comes first, the peptide text is derived from it. Bridges are numbered along the chain shown (N, C = ends). Side-chain parts run from the residue outwards. [ ]: non-standard residue; d: D form. The star is where a group is joined. PhSO2(4-NHCOPh(4-CONH2)) = NC(=O)c1ccc(C(=O)Nc2ccc(S(=O)(=O)*)cc2)cc1; Phenylsulfonyl(4-anisamido) = COc1ccc(C(=O)Nc2ccc(S(=O)(=O)*)cc2)cc1; Benzenesulfonyl(4-OPh) = O=S(=O)(c1ccc(Oc2ccccc2)cc1)*; X1 = O=C(Nc1ccc(S(=O)(=O)*)cc1)c1ccc(OC(F)(F)F)cc1; X3 = O=C(Nc1ccc(S(=O)(=O)*)cc1)c1ccc(OC2CC2)cc1; X2 = CCOc1ccc(C(=O)Nc2ccc(S(=O)(=O)*)cc2)cc1; d(γGlu) = O=C(O)[C@@H](CCC(=O)[*:2])N[*:1]; d(βAsp) = O=C(O)[C@@H](CC(=O)[*:2])N[*:1]; C16 diacid = O=C(O)CCCCCCCCCCCCCCC(=O)*; Pro(4S-NH2) = N[C@@H]1CN[C@H](C(=O)O)C1; NMeI = CC[C@H](C)[C@H](NC)C(=O)O; NMeE = CN[C@@H](CCC(=O)O)C(=O)O; NMeD = CN[C@@H](CC(=O)O)C(=O)O; β3hP = O=C(O)C[C@@H]1CCCN1; Dab = NCC[C@H](N)C(=O)O; Dap = NC[C@H](N)C(=O)O; AEEA = NCCOCCOCC(=O)O; GABA = NCCCC(=O)O; βAla = NCCC(=O)O
Columns and labels:
[1] = target: T1, MMP2 (Homo sapiens, UniProt P08253); test: Inhibitory effects on human MMP2 (Method 1), enzyme assay with MOCAc-Pro-Leu-Gly-Leu-A2pr(Dnp)-Ala-Arg-NH2 substrate, 96-well; assay type: biochemical; settings: read-out: Human MMP2, IC50
T1 sequence (P08253 110-660): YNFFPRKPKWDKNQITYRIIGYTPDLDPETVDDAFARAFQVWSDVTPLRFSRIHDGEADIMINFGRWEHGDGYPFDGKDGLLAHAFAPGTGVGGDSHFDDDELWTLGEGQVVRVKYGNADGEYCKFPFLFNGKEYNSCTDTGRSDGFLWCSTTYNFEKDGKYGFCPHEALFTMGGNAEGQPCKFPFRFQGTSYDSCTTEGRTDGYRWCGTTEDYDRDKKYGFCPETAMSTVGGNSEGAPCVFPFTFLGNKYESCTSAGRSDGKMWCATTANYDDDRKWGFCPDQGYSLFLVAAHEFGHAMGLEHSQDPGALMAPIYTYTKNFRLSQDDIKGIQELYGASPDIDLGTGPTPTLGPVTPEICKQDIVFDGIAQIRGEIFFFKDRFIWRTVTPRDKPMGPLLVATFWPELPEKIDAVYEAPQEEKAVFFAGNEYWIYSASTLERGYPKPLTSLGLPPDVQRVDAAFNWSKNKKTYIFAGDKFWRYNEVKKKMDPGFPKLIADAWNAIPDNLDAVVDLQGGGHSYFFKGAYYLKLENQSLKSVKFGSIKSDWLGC
Description: In a reaction solution [50 mmol/L Tris-HCl (pH 7.5), 150 mmol/L NaCl, 10 mmol/L CaCl2, 0.05% Brij L23], 100 μg/mL human recombinant MMP2 enzyme and 1 mmol/L 4-Aminophenylmercuric acetate were mixed together, and reacted at 37° C. for 60 minutes. The human MMP2 activated through the reaction was poured into a 96-well microplate to reach a final concentration of 0.7 or 7 ng/mL.

[2] = target: human MMP12 (Homo sapiens, UniProt P39900); test: Inhibitory effects on human MMP12, enzyme assay; assay type: biochemical
[3] = target: human MMP13 (Homo sapiens, UniProt P45452); test: Inhibitory effects on human MMP13, enzyme assay; assay type: biochemical; settings: Test Example 8
Description: The human MMP13 activated through the reaction was poured into a 96-well microplate to reach a final concentration of 5 ng/mL. […] Then, MOCAc-[…] was added to reach a final concentration of 6 μmol/L, and enzymatic reaction was initiated.

[4] = target: T1, MMP2; test: Inhibitory effects on human MMP2 (Method 2), enzyme assay with MOCAc-Pro-Leu-Gly-Leu-A2pr(Dnp)-Ala-Arg-NH2 substrate, 384-well; assay type: biochemical; settings: Test Example No. 1-2 (Method 2, 384-well microplate)
[5] = target: T1, MMP2; settings: reported, see NPTL 19; cited from earlier work
[6] = Test Example No. 1-1 (Method 1, 96-well microplate)
[7] = Test Example 7, read-out: Human MMP12, IC50
[8] = Test Example No. 1-1 (Method 1, 96-well)

Chain of human MMP12 (P39900 106-470): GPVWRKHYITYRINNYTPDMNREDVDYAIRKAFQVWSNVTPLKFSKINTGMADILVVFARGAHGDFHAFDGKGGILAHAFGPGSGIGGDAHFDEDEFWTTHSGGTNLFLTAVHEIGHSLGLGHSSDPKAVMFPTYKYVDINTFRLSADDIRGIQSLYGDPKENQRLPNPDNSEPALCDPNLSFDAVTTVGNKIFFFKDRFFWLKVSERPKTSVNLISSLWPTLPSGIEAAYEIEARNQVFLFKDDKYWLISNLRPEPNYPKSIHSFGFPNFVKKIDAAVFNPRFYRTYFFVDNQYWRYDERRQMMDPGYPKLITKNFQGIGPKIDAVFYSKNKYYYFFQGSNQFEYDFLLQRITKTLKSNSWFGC

Compound	IC50 [1, 6]	IC50 [1, 8]	further results
CC(C)C[C@H](NC(=O)[C@@H]1C[C@H](N)CN1C(=O)CC[C@@H](NS(=O)(=O)c1ccc(NC(=O)c2ccc(C(N)=O)cc2)cc1)C(=O)O)C(=O)N(C)[C@@H](CCC(=O)O)C(=O)NCCCCC(N)=O [Compound 1, N-[4-(4-carbamoylbenzamido)benzene-1-sulfonyl]-D-γ-glutamyl-(4S)-4-amino-L-prolyl-L-1 eucyl-N-(5-amino-5-oxopentyl)-N^2-methyl-L-α-glutamine]	0.22 nM	–	IC50 [2]: 253 nM; IC50 [3]: 240 nM
CC[C@H](C)[C@@H](C(=O)NCCCCC(N)=O)N(C)C(=O)[C@H](CC(C)C)NC(=O)[C@@H]1C[C@H](N)CN1C(=O)CC[C@@H](NS(=O)(=O)c1ccc(NC(=O)c2ccc(C(N)=O)cc2)cc1)C(=O)O [Compound 9]	0.29 nM	–	IC50 [2, 7]: 160 nM; IC50 [3]: 250 nM
CC(C)C[C@H](NC(=O)[C@@H]1C[C@H](N)CN1C(=O)CC[C@@H](NS(=O)(=O)c1ccc(NC(=O)c2ccc(C(N)=O)cc2)cc1)C(=O)O)C(=O)N(C)[C@@H](CCC(=O)O)C(=O)N[C@H](CCCNC(=N)N)C(N)=O [Compound 29] ({PhSO2(4-NHCOPh(4-CONH2))-d(γGlu)}-[Pro(4S-NH2)]L[NMeE][dR]-NH2; C-terminus assumed)	–	–	IC50 [4]: 0.14 nM
COc1ccc(C(=O)Nc2ccc(S(=O)(=O)N[C@H](CC(=O)N[C@@H](CN)C(=O)N[C@@H](CC(C)C)C(=O)N(C)[C@@H](CCC(=O)O)C(=O)N3CCC[C@H]3CC(N)=O)C(=O)O)cc2)cc1 [Compound 691] ({Phenylsulfonyl(4-anisamido)-d(βAsp)}-[Dap]L[NMeE][β3hP]-NH2; N-terminus assumed)	0.065 nM	–	IC50 [2, 7]: 101 nM; IC50 [3]: 142 nM
CC[C@H](C)[C@@H](C(=O)N1CCC[C@H]1CC(N)=O)N(C)C(=O)[C@H](CC(C)C)NC(=O)[C@H](CCN)NC(=O)CC[C@@H](NS(=O)(=O)c1ccc(NC(=O)c2ccc(OC3CC3)cc2)cc1)C(=O)O [Compound 700] ({X3-d(γGlu)}-[Dab]L[NMeI][β3hP]-NH2; N-terminus assumed)	0.41 nM	–	–
CC[C@H](C)[C@@H](C(=O)N1CCC[C@H]1CC(N)=O)N(C)C(=O)[C@H](CC(C)C)NC(=O)[C@H](CCN)NC(=O)CC[C@@H](NS(=O)(=O)c1ccc(NC(=O)c2ccc(OC(F)(F)F)cc2)cc1)C(=O)O [Compound 701] ({X1-d(γGlu)}-[Dab]L[NMeI][β3hP]-NH2; N-terminus assumed)	0.27 nM	–	IC50 [2, 7]: 169 nM; IC50 [3]: 116 nM
CCOc1ccc(C(=O)Nc2ccc(S(=O)(=O)N[C@H](CCC(=O)N[C@@H](CCN)C(=O)N[C@@H](CC(C)C)C(=O)N(C)[C@@H](CCC(=O)O)C(=O)N3CCC[C@H]3CC(N)=O)C(=O)O)cc2)cc1 [Compound 702] ({X2-d(γGlu)}-[Dab]L[NMeE][β3hP]-NH2; N-terminus assumed)	0.25 nM	–	–
CC(C)C[C@H](NC(=O)[C@H](CCN)NC(=O)CC[C@@H](NS(=O)(=O)c1ccc(NC(=O)c2ccc(OC3CC3)cc2)cc1)C(=O)O)C(=O)N(C)[C@@H](CCC(=O)O)C(=O)N1CCC[C@H]1CC(N)=O [Compound 703] ({X3-d(γGlu)}-[Dab]L[NMeE][β3hP]-NH2; N-terminus assumed)	0.33 nM	–	–
CC(C)C[C@H](NC(=O)[C@H](CCN)NC(=O)CC[C@@H](NS(=O)(=O)c1ccc(NC(=O)c2ccc(OC(F)(F)F)cc2)cc1)C(=O)O)C(=O)N(C)[C@@H](CCC(=O)O)C(=O)N1CCC[C@H]1CC(N)=O [Compound 704] ({X1-d(γGlu)}-[Dab]L[NMeE][β3hP]-NH2; N-terminus assumed)	0.42 nM	–	–
CC[C@H](C)[C@@H](C(=O)N1CCC[C@H]1CC(=O)O)N(C)C(=O)[C@@H]1CCCCNC(=O)CNC(=O)CC[C@H](NC(=O)CCCNS(=O)(=O)c2ccc(Oc3ccccc3)cc2)C(=O)N[C@@H](CC(=O)O)C(=O)N[C@@H](C)C(=O)N1 [Compound 891] ({Benzenesulfonyl(4-OPh)-GABA}-EDAK[NMeI][β3hP]-OH; linker 1-4 via G)	–	1.6 nM	–
CC[C@H](C)[C@@H](C(=O)N1CCC[C@H]1CC(N)=O)N(C)C(=O)[C@@H]1CCCCNC(=O)CNC(=O)CC[C@H](NC(=O)CCCNS(=O)(=O)c2ccc(Oc3ccccc3)cc2)C(=O)N[C@@H](CC(=O)O)C(=O)N[C@@H](C)C(=O)N1 [Compound 892, [(2S,5S,8S,20S)-8-[{(2S,3S)-1-[(2S)-2-(2-amino-2-oxoethyl)pyrrolidin-1-yl]-3-methyl-1-oxopentan-2-yl}(methyl)carbamoyl]-5-methyl-3,6,14,17,21-pentaoxo-20-{4-[(4-phenoxybenzene-1-sulfonyl)amino]butanamido}-1,4,7,13,16-pentaazacyclohenicosan-2-yl]acetic acid] ({Benzenesulfonyl(4-OPh)-GABA}-EDAK[NMeI][β3hP]-NH2; linker 1-4 via G)	–	1.7 nM	–
CC[C@H](C)[C@@H](C(=O)N1CCC[C@H]1CC(N)=O)N(C)C(=O)[C@@H]1CCCCNC(=O)CCNC(=O)CC[C@H](NC(=O)CCCNS(=O)(=O)c2ccc(Oc3ccccc3)cc2)C(=O)N[C@@H](CC(=O)O)C(=O)N[C@@H](CCN)C(=O)N1 [Compound 894] ({Benzenesulfonyl(4-OPh)-GABA}-ED[Dab]K[NMeI][β3hP]-NH2; linker 1-4 via βAla (inferred); N-terminus assumed)	–	1.1 nM	–
CN(C(=O)[C@@H]1CCCCNC(=O)CCNC(=O)CC[C@H](NC(=O)CCCNS(=O)(=O)c2ccc(Oc3ccccc3)cc2)C(=O)N[C@@H](CC(=O)O)C(=O)N[C@@H](CCN)C(=O)N1)[C@@H](CC(=O)O)C(=O)N1CCC[C@H]1CC(N)=O [Compound 895] ({Benzenesulfonyl(4-OPh)-GABA}-ED[Dab]K[NMeD][β3hP]-NH2; linker 1-4 via βAla (inferred); N-terminus assumed)	–	1.3 nM	–
CC[C@H](C)[C@@H](C(=O)N1CCC[C@H]1CC(N)=O)N(C)C(=O)[C@H](CC(C)C)NC(=O)[C@H](C)NC(=O)[C@H](CC(=O)O)NC(=O)[C@H](CCCCNC(=O)COCCOCCNC(=O)COCCOCCNC(=O)CC[C@@H](NC(=O)CCCCCCCCCCCCCCC(=O)O)C(=O)O)NC(=O)CCCNS(=O)(=O)c1ccc(Oc2ccccc2)cc1 [Compound 903, (2S,5S,32R)-2-{[(2S)-1-({(2S)-1-[{(2S,3S)-1-[(2S)-2-(2-amino-2-oxoethyl)pyrrolidin-1-yl]-3-methyl-1-oxopentan-2-yl}(methyl)amino]-4-methyl-1-oxopentan-2-yl}amino)-1-oxopropan-2-yl]carbamoyl}-4,11,20,29,34-pentaoxo-5-{4-[(4-phenoxybenzene-1-sulfonyl)amino]butanamido}-13,16,22,25-tetraoxa-3,10,19,28,33-pentaazaoctatetracontane-1,32,48-tricarboxylic acid] ({Benzenesulfonyl(4-OPh)-GABA}-K([AEEA-AEEA-d(γGlu)-C16 diacid])DAL[NMeI][β3hP]-NH2)	–	0.127 nM	–
IIe-Ser-Tyr-Gly-Asn-Asp-Ala-Leu-Met-Pro [APP-IP]	–	–	MMP2-inhibitory effect [5]: selective MMP2-inhibitory effect
